Patent US11685766B2, “14-3-3 targeting peptides for cancer treatment” (Creighton University, priority 2019, dated 2023)
Values joined by “and” are separate entries in the source; they are usually repeats but may differ in a detail not shown here. Identical values can stand only once. Like-named read-outs stand apart in the source and are kept apart here. Peptide text beside a SMILES is read from it.

System: SCC12B.2 cells
Format: cell-based, human
Experimental: Human skin cancer cell lines (SCC12B.2, SCC13, SRB12) were maintained in Dulbecco's modified Eagle's medium (DMEM) (Invitrogen, Carlsbad, Calif., USA) supplemented with 1% penicillin (10 000 U/ml)-streptomycin (10 000 μg/ml) (PenStrep) (Invitrogen) and 10% fetal bovine serum (Gemini Bio-Products, Sacramento, Calif., USA) at 37° C. and 5% CO2. Normal human epidermal keratinocytes (nHEK) (Thermo Scientific, Waltham, Mass., USA) isolated from neonatal foreskin were cultured in EpiLife medium (Invitrogen) supplemented with human keratinocyte growth supplement (Invitrogen) and 1% PenStrep (Invitrogen). Cells were transfected with control pcDNA or pcDNA3.1-HA-14-3-3ε (Addgene plasmid #48797; http://n2t.net/addgene:48797; RRID:Addgene_48797) using Lipofectamine/Plus reagents (Life Technologies, Carlsbad, Calif., USA) or with siRNA targeting 14-3-3ε (Dharmacon, Lafayette, Colo., USA), 14-3-3γ (Dharmacon), 14-3-3ζ, (Dharmacon), Survivin (Cell Signaling, Danvers, Mass., USA), Akt (Dharmacon) or control siRNA (Santa Cruz Biotechnology, Dallas, Tex., USA) using siQuest transfection reagents (Mirus Bio, Madison, Wis., USA) or treated with Akt inhibitor GSK690693 (Tocris Bioscience, Bristol, United Kingdom) or cell cycle inhibitor 5-Fluorouracil (5-FU) (Thermo Fisher) resuspended in DMSO.
To determine the half maximal inhibitory concentration (IC50) for ES1P2 in SCC12B.2 and nHEK cells, cells were plated in a 96-well plate at a density of 6×10^3 cells/well. Twenty-four hours after plating, cells were treated with increasing concentrations of ES1P2 (0-75 μM) in Opti MEM medium supplemented with reduced serum (Invitrogen) for 4 consecutive days. ES1P2 peptide was resuspended fresh, daily in 25 mM Tris buffer (pH 7.5). Neutral Red Cell Viability assays were performed, where absorbance was measured using a Cytation 5 multi-mode plate reader (BioTek). The experiment was repeated three separate times with 4 replicate wells per experiment to obtain an average IC50 value.
Carcinoma human cell lines (SCC12B.2 and SCC13) were maintained in Dulbecco's modified Eagle's medium (DMEM) (Invitrogen, Carlsbad, Calif., USA) supplemented with 1% penicillin (10 000 U/ml)-streptomycin (10 000 μg/ml) (PenStrep) (Invitrogen) and 10% fetal bovine serum (Gemini Bio-Products, Sacramento, Calif., USA) at 37° C. and 5% CO2. Primary normal human epidermal keratinocytes (nHEK) (Thermo Fisher Scientific, Waltham, Mass., USA) isolated from neonatal foreskin were maintained in EpiLife medium (Invitrogen) supplemented with human keratinocyte growth supplement (HKGS) and 1% PenStrep. nHEK cells were not passaged more than twice before experiments. Cells were treated with CDC25A inhibitor NSC663284 (Tocris Bioscience, Bristol, United Kingdom) suspended in DMSO, transfected with wild type CDC25A or control plasmid using Lipofectamine/Plus transfection reagents (Life Technologies, Carlsbad, Calif., USA) or transfected with siRNA targeting 14-3-3 ε or control siRNA (Santa Cruz Biotechnology, Dallas, Tex., USA) using siQuest transfection reagents (Mirus Bio, Madison, Wis., USA).
To determine the half maximal inhibitory concentration (IC50) for pS and pT in SCC12B.2 cells, cells were plated in a 96-well plate at a density of 6×10^3 cells/well. […] Neutral Red Cell Viability assays were performed, where absorbance was measured using a Cytation 5 multi-mode plate reader (BioTek). […]

Row | SMILES | IC50 [µM] | SCC cells alive (20 μM, alone, FIG. 1D) [% alive] | IC50 (SCC12B.2 cells, Neutral Red, treated 4 consecutive days, 0-75 μM, read-out: IC50 in SCC cells (cell viability dose response))
1 | NCCCC[C@H](NC(=O)[C@H](Cc1c[nH]c2ccccc12)NC(=O)[C@H](Cc1ccc(O)cc1)NC(=O)[C@@H](N)Cc1c[nH]c2ccccc12)C(N)=O [ES1P2, Trp-Tyr-Trp-Lys-NH2] (H-WYWK-NH2) | 20.6 | 62 | –
2 | CSCC[C@H](NC(=O)[C@H](CCCNC(=N)N)NC(=O)[C@@H]1CCCN1C(=O)[C@H](C)NC(=O)[C@H](COP(=O)(O)O)NC(=O)[C@H](CC(N)=O)NC(=O)[C@H](CCC(N)=O)NC(=O)[C@H](CCCNC(=N)N)NC(=O)[C@H](CCC(N)=O)NC(=O)[C@@H](NC(C)=O)[C@@H](C)O)C(=O)N[C@@H](CC(C)C)C(=O)N[C@@H](CO)C(=O)N[C@@H](CO)C(=O)N[C@@H](CC(N)=O)C(N)=O [pS, Ac-Thr-Gln-Arg-Gln-Asn-Ser-(PO3^2−)-Ala-Pro-Arg-Met-Leu-Ser-Ser-Asn-NH2] (HELM PEPTIDE1{[ac].T.Q.R.Q.N.[O=C([C@H](COP(=O)(O)O)N[*:1])[*:2]].A.P.R.M.L.S.S.N.[am]}$$$$V2.0) | 29 | – | –
3 | CC(=O)N[C@@H](CCCNC(=N)N)C(=O)N[C@H](C(=O)N[C@@H](CCCCN)C(=O)N[C@@H](CO)C(=O)N[C@@H](CCCNC(=N)N)C(=O)N[C@H](C(=O)N[C@@H](Cc1c[nH]c2ccccc12)C(=O)N[C@@H](C)C(=O)NCC(=O)N[C@@H](CCC(=O)O)C(=O)N[C@@H](CCCCN)C(=O)N[C@@H](CO)C(=O)N[C@@H](CCCCN)C(=O)N[C@@H](CCCNC(=N)N)C(N)=O)[C@@H](C)OP(=O)(O)O)[C@@H](C)O [pT, Ac-Arg-Thr-Lys-Ser-Arg-Thr(PO3^2−)-Trp-Ala-Gly-Glu-Lys-Ser-Lys-Arg-NH2] (HELM PEPTIDE1{[ac].R.T.K.S.R.[C[C@@H](OP(=O)(O)O)[C@H](N[*:1])C(=O)[*:2]].W.A.G.E.K.S.K.R.[am]}$$$$V2.0) | – | – | 22.1 µM and 22.6 µM
